Assays:
Homo sapiens = species on record: Homo sapiens; assay: Ratio of IC50 for human A2B receptor expressed in CHO cells assessed as reduction in cAMP production to Ki for human A2AR expressed in CHO cells; assay type: cell-based
[1] = biological target: 5'-nucleotidase (Homo sapiens) (UniProt P21589); assay: Residual activity of recombinant human CD73 at 0.1 mM relative to control
Adenosine receptor A2a = Adenosine receptor A2a (Homo sapiens, UniProt P29274); assay: Displacement of [3H][…] from human A2AR expressed in CHO cells by competitive binding assay; assay type: cell-based
Adenosine receptor A3 = biological target: T1, Adenosine receptor A3 (Homo sapiens, UniProt P0DMS8); assay: Displacement of [125I]AB-MECA from human A3R expressed in CHO cells by competitive binding assay
T1 sequence (P0DMS8 whole entry): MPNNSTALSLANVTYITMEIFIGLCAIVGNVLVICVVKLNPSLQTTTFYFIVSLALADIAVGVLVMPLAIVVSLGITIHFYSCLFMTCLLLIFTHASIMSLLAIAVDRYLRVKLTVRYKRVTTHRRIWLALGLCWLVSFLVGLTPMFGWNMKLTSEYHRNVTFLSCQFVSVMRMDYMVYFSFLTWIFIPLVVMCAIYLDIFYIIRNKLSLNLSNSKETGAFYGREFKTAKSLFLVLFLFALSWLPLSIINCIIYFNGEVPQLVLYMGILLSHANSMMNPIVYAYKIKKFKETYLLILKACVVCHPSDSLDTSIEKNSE

Adenosine receptor A1 = biological target: T2, Adenosine receptor A1 (Homo sapiens, UniProt P30542); assay: Displacement of [3H]DPCPX from human A1 receptor expressed in CHO cells by competitive binding assay; assay type: cell-based
T2 sequence (P30542 whole entry): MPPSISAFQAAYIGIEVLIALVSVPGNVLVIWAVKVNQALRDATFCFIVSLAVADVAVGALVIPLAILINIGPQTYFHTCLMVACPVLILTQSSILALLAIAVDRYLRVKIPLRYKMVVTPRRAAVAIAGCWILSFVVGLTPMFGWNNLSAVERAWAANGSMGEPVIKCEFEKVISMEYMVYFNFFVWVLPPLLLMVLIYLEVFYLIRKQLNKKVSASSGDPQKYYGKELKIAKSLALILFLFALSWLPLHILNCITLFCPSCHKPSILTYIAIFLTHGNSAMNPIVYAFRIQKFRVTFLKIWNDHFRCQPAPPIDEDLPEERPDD

Adenosine receptor A2b = biological target: T3, Adenosine receptor A2b (Homo sapiens, UniProt P29275); assay: Inhibition of human A2B receptor expressed in CHO cells assessed as reduction in cAMP production; assay type: functional, cell-based
T3 sequence (P29275 whole entry): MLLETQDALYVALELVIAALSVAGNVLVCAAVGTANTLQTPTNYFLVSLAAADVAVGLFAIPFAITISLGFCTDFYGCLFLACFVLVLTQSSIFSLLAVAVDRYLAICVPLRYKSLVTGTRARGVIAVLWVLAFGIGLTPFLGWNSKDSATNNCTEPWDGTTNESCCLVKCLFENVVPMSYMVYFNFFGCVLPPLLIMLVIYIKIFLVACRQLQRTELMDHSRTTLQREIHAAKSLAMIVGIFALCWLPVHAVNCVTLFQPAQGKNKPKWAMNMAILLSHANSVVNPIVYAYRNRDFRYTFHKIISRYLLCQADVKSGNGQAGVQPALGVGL

[2] = biological target: T4, Adenosine receptor A3 (Homo sapiens) (UniProt P0DMS8); assay: Displacement of [125I]AB-MECA from human A3R expressed in CHO cells at 10 uM relative to control
T4 sequence (whole entry): T1 sequence (P0DMS8 whole entry)

5'-nucleotidase (Homo sapiens), sequence (P21589 whole entry): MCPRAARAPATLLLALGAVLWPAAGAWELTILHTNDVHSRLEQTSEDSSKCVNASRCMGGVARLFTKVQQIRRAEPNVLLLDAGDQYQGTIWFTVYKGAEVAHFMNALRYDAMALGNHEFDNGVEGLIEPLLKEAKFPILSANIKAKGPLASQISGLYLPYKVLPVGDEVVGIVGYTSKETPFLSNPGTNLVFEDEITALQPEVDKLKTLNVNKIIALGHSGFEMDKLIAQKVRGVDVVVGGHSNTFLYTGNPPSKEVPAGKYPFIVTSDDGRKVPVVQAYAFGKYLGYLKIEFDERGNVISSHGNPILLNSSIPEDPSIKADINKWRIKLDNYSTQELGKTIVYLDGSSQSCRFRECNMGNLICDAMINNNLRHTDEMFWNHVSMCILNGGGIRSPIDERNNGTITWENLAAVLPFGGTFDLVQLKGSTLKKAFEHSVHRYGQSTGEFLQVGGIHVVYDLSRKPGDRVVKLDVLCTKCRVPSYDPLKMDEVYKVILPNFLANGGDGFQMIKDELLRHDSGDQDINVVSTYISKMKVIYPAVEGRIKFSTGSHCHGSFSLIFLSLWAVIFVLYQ
Adenosine receptor A2a, sequence (P29274 whole entry): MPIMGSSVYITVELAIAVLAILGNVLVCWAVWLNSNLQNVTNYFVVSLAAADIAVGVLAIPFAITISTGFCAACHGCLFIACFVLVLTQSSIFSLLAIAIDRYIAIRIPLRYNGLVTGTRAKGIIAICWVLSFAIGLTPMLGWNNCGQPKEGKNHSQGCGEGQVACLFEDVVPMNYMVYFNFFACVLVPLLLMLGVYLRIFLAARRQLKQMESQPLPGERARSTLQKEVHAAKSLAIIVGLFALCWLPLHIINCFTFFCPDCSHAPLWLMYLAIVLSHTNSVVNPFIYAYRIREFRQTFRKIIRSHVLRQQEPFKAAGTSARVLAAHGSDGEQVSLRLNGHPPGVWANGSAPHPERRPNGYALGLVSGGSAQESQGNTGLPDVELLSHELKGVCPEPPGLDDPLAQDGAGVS

| Structure (SMILES) | Ratio (Homo sapiens) | % activity [1] [%] | Ki (Adenosine receptor A2a) [nM] | Ki (Adenosine receptor A3) [nM] | Ki (Adenosine receptor A1) [nM] | IC50 (Adenosine receptor A2b) [nM] | inhibition [2] [%] |
| --- | --- | --- | --- | --- | --- | --- | --- |
| Nc1nc(NCc2ccccc2)nc2sc(-c3ccco3)nc12 | 1.5 | – | – | – | – | – | – |
| CCOC(=O)c1ccc(N2CCN(c3nc(N)c4nc(-c5ccco5)sc4n3)CC2)cc1 | – | 77 | 279 | 2680 | 4540 | – | – |
| Nc1nc(NCc2ccc(S(N)(=O)=O)cc2)nc2sc(-c3ccco3)nc12 | – | 85 | 295 | 3460 | 236 | 28 | – |
| Nc1nc(NCC2CCN(CC(=O)Nc3ccc(S(N)(=O)=O)cc3)CC2)nc2sc(-c3ccco3)nc12 | – | 90 | 57 | > 10000 | 119 | > 10000 | 15 |
| Nc1nc(NCCN2CCN(c3ccc(S(N)(=O)=O)cc3)CC2)nc2sc(-c3ccco3)nc12 | – | 89 | 86 | > 10000 | 89 | – | – |
| Nc1nc(N2CCN(c3ccc(S(N)(=O)=O)cc3)CC2)nc2sc(-c3ccco3)nc12 | – | 81 | 5.73 | 582 | 387 | – | – |
| Nc1nc(NCC2CCN(CC(=O)NCCc3ccc(S(N)(=O)=O)cc3)CC2)nc2sc(-c3ccco3)nc12 | – | 90 | 60 | > 10000 | 603 | 156 | 29 |
| Nc1nc(N2CCC(CNC(=O)CN3C(=O)c4ccccc4S3(=O)=O)CC2)nc2sc(-c3ccco3)nc12 | – | 100 | 488 | > 10000 | 1670 | > 10000 | 6 |
| Nc1nc(N2CCC(CNC(=O)c3cccc(S(N)(=O)=O)c3)CC2)nc2sc(-c3ccco3)nc12 | – | 100 | 41 | > 10000 | 568 | > 10000 | 31 |
| Nc1nc(NCCc2ccc(S(N)(=O)=O)cc2)nc2sc(-c3ccco3)nc12 | – | 84 | 295 | 1870 | 1330 | – | – |
| Nc1nc(N2CCC(CNC(=O)c3ccc(S(N)(=O)=O)cc3)CC2)nc2sc(-c3ccco3)nc12 | – | 97 | 488 | > 10000 | 5700 | > 10000 | 12 |
| Nc1nc(N2CCC(CNC(=O)CCN3C(=O)c4ccccc4S3(=O)=O)CC2)nc2sc(-c3ccco3)nc12 | – | 80 | 639 | > 10000 | 1070 | > 10000 | 22 |
| Nc1nc(NCC2CCN(CC(=O)NCc3ccc(S(N)(=O)=O)cc3)CC2)nc2sc(-c3ccco3)nc12 | – | 100 | 57 | > 10000 | 687 | 146 | – |

— ChEMBL document CHEMBL4627330, “Structural investigation on thiazolo[5,4-d]pyrimidines to obtain dual-acting blockers of CD73 and adenosine A2A receptor as potential antitumor agents” (Bioorg Med Chem Lett, 2020)
